# Source: paper PMC7847995, “Site-directed mutagenesis identified the key active site residues of alcohol acyltransferase PpAAT1 responsible for aroma biosynthesis in peach fruits” (Horticulture Research, 2021)
# Target: T1, PpAAT1 (Prunus persica, UniProt M5WU76)
# T1 construct: gene AAT1; codon-optimised, C-terminal polyhistidine tag, pET-30a(+), expressed in E. coli, purified; HxxxD motif HAMCD at H165-D169
# Assay: esterification assay
# Format: biochemical
# Settings: co-substrate acetyl-CoA
# T1 sequence (M5WU76 entry or part of it): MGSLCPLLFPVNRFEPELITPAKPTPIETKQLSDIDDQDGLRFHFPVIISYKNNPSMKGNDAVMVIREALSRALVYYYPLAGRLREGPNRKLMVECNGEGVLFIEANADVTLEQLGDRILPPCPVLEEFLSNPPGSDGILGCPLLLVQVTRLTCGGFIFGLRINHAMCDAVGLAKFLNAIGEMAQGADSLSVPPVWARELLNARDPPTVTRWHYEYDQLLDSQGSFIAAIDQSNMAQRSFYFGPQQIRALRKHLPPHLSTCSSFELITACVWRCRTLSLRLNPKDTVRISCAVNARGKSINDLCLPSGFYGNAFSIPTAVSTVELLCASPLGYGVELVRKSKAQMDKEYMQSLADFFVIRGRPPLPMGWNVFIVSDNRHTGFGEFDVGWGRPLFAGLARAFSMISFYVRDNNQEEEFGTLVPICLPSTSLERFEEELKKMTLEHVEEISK
SMILES,Kcat/Km (product propyl acetate),Kcat/Km (product hexyl acetate)
CCCO [propanol],"acetyl–CoA and four different alcohols (propanol, hexanol, benzyl alcohol, and decanol)",
CCCCCCO [hexanol],,a higher Kcat/Km ratio was observed in all substitutions when hexanol was used as the substrate
